Assay results: the kinase profiling compilation of Christmann-Franck et al. (2016)

What was measured:
Assay in all cases: KINOMEscan competition binding
Details in all cases: compound 1.0 µM
[1] = system: FLT3 (human), P36888 [D835H]
MAPK4 (human) = MAPK4 (human) (UniProt P31152)
CLK1 (human) = CLK1 (human) (UniProt P49759)
PKN2 (human) = PKN2 (human) (UniProt Q16513)
RPS6KA2 KD1 (human) = RPS6KA2 KD1 (human) (UniProt Q15349)
TGFBR1 (human) = TGFBR1 (human) (UniProt P36897)
CDK13 (human) = CDK13 (human) (UniProt Q14004)
CAMK1G (human) = CAMK1G (human) (UniProt Q96NX5)
ADCK4 (human) = ADCK4 (human) (UniProt Q96D53)
HUNK (human) = HUNK (human) (UniProt P57058)
ULK3 (human) = ULK3 (human) (UniProt Q6PHR2)
[2] = target: JAK2 JH1 catalytic (human) (UniProt O60674)
PIP4K2C (human) = PIP4K2C (human) (UniProt Q8TBX8)
MAP3K4 (human) = MAP3K4 (human) (UniProt Q9Y6R4)
ERN1 (human) = ERN1 (human) (UniProt O75460)
MET (human) = MET (human) (UniProt P08581)
STK24 (human) = STK24 (human) (UniProt Q9Y6E0)
CAMK2G (human) = CAMK2G (human) (UniProt Q13555)
AXL (human) = AXL (human) (UniProt P30530)
NEK7 (human) = NEK7 (human) (UniProt Q8TDX7)
LIMK2 (human) = LIMK2 (human) (UniProt P53671)
FLT1 (human) = FLT1 (human) (UniProt P17948)
[3] = system: EGFR (human), P00533 [T790M/L858R]
RPS6KA5 KD1 (human) = RPS6KA5 KD1 (human) (UniProt O75582)
[4] = system: FGFR3 (human), P22607 [G697C]
RPS6KA6 KD2 (human) = RPS6KA6 KD2 (human) (UniProt Q9UK32)
CDC42BPG (human) = CDC42BPG (human) (UniProt Q6DT37)
MARK1 (human) = MARK1 (human) (UniProt Q9P0L2)
ANKK1 (human) = ANKK1 (human) (UniProt Q8NFD2)
CSNK1G2 (human) = CSNK1G2 (human) (UniProt P78368)
PAK4 (human) = PAK4 (human) (UniProt O96013)
EPHA2 (human) = EPHA2 (human) (UniProt P29317)
[5] = system: EGFR (human), P00533 [L858R]
CSNK1A1 (human) = CSNK1A1 (human) (UniProt P48729)
PRKG2 (human) = PRKG2 (human) (UniProt Q13237)
[6] = system: EGFR (human), P00533 [746-750 del]
AURKA (human) = AURKA (human) (UniProt O14965)
PRKCD (human) = PRKCD (human) (UniProt Q05655)
Chain of PRKCD (human) (Q05655 whole entry, looked up): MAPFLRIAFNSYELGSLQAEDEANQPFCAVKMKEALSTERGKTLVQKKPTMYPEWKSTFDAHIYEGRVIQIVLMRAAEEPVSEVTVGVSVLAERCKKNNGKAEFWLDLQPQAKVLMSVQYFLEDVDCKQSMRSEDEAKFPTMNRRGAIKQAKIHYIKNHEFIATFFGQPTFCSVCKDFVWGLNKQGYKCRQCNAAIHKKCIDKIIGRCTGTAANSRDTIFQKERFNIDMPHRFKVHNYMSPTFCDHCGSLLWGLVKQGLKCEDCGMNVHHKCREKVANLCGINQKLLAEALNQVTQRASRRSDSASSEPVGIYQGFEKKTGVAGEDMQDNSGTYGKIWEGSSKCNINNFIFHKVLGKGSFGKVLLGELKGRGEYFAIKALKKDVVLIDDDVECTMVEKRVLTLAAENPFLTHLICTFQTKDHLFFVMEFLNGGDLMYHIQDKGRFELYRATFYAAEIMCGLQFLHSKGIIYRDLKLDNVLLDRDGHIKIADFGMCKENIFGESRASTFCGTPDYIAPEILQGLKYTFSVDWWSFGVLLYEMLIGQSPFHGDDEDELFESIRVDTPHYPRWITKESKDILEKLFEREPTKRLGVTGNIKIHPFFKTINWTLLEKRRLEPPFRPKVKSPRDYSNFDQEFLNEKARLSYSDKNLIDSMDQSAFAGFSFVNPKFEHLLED

Chain of FLT1 (human) (P17948 whole entry, looked up): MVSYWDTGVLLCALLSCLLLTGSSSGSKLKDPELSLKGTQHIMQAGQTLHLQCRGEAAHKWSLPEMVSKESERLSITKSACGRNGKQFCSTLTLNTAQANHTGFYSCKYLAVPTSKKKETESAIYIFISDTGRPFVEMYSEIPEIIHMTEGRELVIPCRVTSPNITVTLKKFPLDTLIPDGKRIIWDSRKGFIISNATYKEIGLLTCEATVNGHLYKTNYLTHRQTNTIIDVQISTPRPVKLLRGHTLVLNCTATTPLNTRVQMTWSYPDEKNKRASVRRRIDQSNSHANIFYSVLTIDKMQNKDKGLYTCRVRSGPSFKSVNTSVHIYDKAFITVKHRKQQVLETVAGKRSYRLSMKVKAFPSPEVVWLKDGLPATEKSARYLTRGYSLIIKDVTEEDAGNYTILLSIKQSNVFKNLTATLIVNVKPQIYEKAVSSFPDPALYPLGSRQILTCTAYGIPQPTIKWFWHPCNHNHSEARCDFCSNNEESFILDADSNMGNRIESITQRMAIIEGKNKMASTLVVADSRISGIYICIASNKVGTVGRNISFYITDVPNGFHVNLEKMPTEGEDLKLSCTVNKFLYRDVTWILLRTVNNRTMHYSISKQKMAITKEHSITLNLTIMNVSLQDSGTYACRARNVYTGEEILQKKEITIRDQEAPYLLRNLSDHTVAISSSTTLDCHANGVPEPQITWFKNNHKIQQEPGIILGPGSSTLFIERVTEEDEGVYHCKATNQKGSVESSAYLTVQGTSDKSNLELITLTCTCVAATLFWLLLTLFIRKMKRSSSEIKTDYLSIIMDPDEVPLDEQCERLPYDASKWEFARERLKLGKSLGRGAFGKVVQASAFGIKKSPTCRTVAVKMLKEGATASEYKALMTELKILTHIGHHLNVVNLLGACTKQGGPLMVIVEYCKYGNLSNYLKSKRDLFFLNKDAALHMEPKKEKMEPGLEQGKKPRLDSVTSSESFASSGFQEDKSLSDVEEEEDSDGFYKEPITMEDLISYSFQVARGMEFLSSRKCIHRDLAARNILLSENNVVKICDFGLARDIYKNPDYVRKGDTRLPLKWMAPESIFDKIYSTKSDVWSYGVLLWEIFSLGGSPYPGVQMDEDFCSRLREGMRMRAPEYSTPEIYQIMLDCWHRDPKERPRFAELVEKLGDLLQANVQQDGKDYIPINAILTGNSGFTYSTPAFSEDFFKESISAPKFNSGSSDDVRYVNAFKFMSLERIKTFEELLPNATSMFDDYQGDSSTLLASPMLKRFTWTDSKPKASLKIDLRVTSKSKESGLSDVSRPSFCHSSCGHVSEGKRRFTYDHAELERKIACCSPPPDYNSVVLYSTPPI
Chain of CSNK1G2 (human) (P78368 whole entry, looked up): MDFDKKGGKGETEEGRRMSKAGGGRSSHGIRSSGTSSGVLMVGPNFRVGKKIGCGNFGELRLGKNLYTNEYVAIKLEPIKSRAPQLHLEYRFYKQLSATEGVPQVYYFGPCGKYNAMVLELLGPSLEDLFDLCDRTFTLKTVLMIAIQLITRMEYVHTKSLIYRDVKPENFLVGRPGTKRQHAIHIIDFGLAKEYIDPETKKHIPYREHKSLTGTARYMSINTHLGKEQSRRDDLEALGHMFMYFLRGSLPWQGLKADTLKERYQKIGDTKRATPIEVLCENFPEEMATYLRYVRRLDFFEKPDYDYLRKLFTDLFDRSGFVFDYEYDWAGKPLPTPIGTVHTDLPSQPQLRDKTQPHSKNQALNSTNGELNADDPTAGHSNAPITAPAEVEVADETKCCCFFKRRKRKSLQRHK
Chain of RPS6KA6 KD2 (human) (Q9UK32 whole entry, looked up): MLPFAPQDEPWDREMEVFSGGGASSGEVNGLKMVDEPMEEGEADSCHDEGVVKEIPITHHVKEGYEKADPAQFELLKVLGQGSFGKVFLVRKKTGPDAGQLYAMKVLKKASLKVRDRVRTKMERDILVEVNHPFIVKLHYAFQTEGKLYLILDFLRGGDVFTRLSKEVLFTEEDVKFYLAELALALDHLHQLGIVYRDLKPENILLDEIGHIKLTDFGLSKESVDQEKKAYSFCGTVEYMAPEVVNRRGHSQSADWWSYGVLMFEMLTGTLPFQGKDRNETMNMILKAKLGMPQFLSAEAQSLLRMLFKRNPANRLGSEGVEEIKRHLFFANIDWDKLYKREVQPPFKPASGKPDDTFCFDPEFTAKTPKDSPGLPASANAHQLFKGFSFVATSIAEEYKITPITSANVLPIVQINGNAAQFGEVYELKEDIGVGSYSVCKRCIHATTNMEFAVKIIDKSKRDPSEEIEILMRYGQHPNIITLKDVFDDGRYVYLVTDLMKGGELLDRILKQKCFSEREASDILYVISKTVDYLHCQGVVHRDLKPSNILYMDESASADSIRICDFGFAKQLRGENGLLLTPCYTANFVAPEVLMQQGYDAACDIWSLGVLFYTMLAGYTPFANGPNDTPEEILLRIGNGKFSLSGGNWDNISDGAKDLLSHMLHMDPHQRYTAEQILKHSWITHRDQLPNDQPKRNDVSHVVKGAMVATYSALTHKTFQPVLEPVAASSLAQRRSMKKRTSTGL
Chain of CSNK1A1 (human) (P48729 whole entry, looked up): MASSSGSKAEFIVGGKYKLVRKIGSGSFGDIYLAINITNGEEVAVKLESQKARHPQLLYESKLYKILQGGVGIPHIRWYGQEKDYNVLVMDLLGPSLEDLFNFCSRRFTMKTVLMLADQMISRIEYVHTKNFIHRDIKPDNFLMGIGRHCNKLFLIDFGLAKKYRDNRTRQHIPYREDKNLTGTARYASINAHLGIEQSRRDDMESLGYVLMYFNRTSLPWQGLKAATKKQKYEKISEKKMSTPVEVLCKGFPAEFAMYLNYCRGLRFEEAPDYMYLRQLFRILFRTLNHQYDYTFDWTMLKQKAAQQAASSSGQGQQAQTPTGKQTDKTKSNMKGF
Chain of HUNK (human) (P57058 whole entry, looked up): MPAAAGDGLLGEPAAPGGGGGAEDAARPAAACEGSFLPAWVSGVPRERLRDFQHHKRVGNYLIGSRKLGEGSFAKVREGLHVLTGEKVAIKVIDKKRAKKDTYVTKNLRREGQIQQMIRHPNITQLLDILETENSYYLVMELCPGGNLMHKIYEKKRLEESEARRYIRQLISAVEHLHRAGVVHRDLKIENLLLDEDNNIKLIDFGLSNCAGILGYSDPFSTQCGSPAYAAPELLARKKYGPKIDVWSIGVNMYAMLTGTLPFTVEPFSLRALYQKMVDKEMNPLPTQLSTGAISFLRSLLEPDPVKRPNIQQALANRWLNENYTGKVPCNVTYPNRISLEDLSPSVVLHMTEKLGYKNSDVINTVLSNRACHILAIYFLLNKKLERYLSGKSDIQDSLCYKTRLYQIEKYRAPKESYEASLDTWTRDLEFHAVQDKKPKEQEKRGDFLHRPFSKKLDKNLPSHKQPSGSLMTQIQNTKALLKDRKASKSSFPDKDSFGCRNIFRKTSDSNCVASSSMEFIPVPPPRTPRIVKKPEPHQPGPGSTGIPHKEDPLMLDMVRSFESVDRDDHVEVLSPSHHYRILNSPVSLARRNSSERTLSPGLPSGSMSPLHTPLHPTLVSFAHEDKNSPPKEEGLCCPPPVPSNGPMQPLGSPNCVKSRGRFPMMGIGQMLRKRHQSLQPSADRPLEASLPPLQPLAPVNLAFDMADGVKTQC
Chain of ULK3 (human) (Q6PHR2 whole entry, looked up): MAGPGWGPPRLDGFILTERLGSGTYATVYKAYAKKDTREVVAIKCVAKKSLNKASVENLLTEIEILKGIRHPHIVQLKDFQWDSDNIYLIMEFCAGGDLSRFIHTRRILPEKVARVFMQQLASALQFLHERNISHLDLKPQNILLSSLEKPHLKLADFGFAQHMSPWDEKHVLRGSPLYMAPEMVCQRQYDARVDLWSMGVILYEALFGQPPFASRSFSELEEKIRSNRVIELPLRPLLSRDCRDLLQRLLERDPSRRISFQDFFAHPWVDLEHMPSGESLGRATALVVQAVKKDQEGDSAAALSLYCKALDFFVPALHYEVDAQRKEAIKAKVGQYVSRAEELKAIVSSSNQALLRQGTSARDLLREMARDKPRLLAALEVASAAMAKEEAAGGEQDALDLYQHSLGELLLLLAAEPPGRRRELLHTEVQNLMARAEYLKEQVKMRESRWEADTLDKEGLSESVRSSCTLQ
Chain of NEK7 (human) (Q8TDX7 whole entry, looked up): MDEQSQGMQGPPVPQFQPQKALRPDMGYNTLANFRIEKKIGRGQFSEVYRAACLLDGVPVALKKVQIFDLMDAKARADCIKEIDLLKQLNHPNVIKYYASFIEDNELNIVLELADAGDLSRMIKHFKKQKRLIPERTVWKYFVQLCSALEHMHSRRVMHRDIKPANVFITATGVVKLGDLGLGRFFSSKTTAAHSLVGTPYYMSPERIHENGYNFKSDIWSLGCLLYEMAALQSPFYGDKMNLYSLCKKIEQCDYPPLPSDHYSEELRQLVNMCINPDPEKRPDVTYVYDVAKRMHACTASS

**Q.** Which kinase still bound, per cent of control [1] does the source give for `CNc1nc(Nc2ccc(C(=O)N3CCOCC3)cc2OC)ncc1Cl` here?
**A.** 78%

**Q.** What about the kinase still bound, per cent of control (MAPK4 (human)) of the same compound?
**A.** 100%

**Q.** What about the kinase still bound, per cent of control (CLK1 (human)) of the same compound?
**A.** 100%

**Q.** And the kinase still bound, per cent of control (PKN2 (human))?
**A.** 79%

**Q.** What about the kinase still bound, per cent of control (RPS6KA2 KD1 (human)) of the same compound?
**A.** 100%

**Q.** What about the kinase still bound, per cent of control (TGFBR1 (human)) of the same compound?
**A.** 100%

**Q.** What about the residual activity (CDK13 (human)) of the same compound?
**A.** 89%

**Q.** What about the kinase still bound, per cent of control (CAMK1G (human)) of the same compound?
**A.** 96%

**Q.** And the kinase still bound, per cent of control (ADCK4 (human))?
**A.** 100%

**Q.** What about the kinase still bound, per cent of control (HUNK (human)) of the same compound?
**A.** 98%

**Q.** And the kinase still bound, per cent of control (ULK3 (human))?
**A.** 83%

**Q.** What about the kinase still bound, per cent of control [2] of the same compound?
**A.** 100%

**Q.** And the kinase still bound, per cent of control (PIP4K2C (human))?
**A.** 100%

**Q.** And the kinase still bound, per cent of control (MAP3K4 (human))?
**A.** 100%

**Q.** What about the kinase still bound, per cent of control (ERN1 (human)) of the same compound?
**A.** 88%

**Q.** What about the kinase still bound, per cent of control (MET (human)) of the same compound?
**A.** 100%

**Q.** And the kinase still bound, per cent of control (STK24 (human))?
**A.** 79%

**Q.** And the kinase still bound, per cent of control (CAMK2G (human))?
**A.** 93%

**Q.** And the kinase still bound, per cent of control (AXL (human))?
**A.** 97%

**Q.** What about the kinase still bound, per cent of control (NEK7 (human)) of the same compound?
**A.** 88%

**Q.** And the kinase still bound, per cent of control (LIMK2 (human))?
**A.** 100%

**Q.** And the kinase still bound, per cent of control (FLT1 (human))?
**A.** 100%

**Q.** And the kinase still bound, per cent of control [3]?
**A.** 100%

**Q.** What about the kinase still bound, per cent of control (RPS6KA5 KD1 (human)) of the same compound?
**A.** 100%

**Q.** And the kinase still bound, per cent of control [4]?
**A.** 100%

**Q.** What about the kinase still bound, per cent of control (RPS6KA6 KD2 (human)) of the same compound?
**A.** 89%

**Q.** What about the kinase still bound, per cent of control (CDC42BPG (human)) of the same compound?
**A.** 100%

**Q.** What about the kinase still bound, per cent of control (MARK1 (human)) of the same compound?
**A.** 45%

**Q.** What about the kinase still bound, per cent of control (ANKK1 (human)) of the same compound?
**A.** 100%

**Q.** What about the kinase still bound, per cent of control (CSNK1G2 (human)) of the same compound?
**A.** 100%

**Q.** And the kinase still bound, per cent of control (PAK4 (human))?
**A.** 100%

**Q.** And the kinase still bound, per cent of control (EPHA2 (human))?
**A.** 100%

**Q.** What about the kinase still bound, per cent of control [5] of the same compound?
**A.** 100%

**Q.** What about the kinase still bound, per cent of control (CSNK1A1 (human)) of the same compound?
**A.** 100%

**Q.** What about the kinase still bound, per cent of control (PRKG2 (human)) of the same compound?
**A.** 94%

**Q.** And the kinase still bound, per cent of control [6]?
**A.** 88%

**Q.** What about the kinase still bound, per cent of control (AURKA (human)) of the same compound?
**A.** 96%

**Q.** And the kinase still bound, per cent of control (PRKCD (human))?
**A.** 49%
